Test system: EGFR gene
Assay: Screening of SureKill guide RNAs in the EGFR gene for ability to induce indels
Assay type: cell-based
Conditions: transfections of individual guide RNAs (spCas9 RNP); PDMR human lung adenocarcinoma cells with EGFR L858R; DECODR
Method: Human lung squamous cell carcinoma NCI-H1703 clone 44-25 cells were derived from NCI-H1703 cells (#CRL-5889) which were purchased from ATCC (Manassas, VA, USA). NCI-H1703 clone 44-25 cells contains R34G mutation (C 4 G) in NFE2L2 gene. H1703 clone 44-25 cells were cultured in ATCC formulation RPMI-1640 with 10% FBS. T75 flasks were used and cells were split 1:5 upon reaching 90% confluency. Human lung adenocarcinoma cells (Dist. Lot. No. LG0703-F948-PDC) were acquired from the National Institute of Health's National Cancer Institute's Patient-Derived Models Repository (PDMR). This PDMR cell line contains the L858R mutation (T 4 G) in the EGFR gene. The PDMR cells were maintained in Advanced DMEM/F12 media containing 10% FBS, 0.4 μg/mL hydrocortisone, 0.01 μg/mL EGF Recombinant Human Protein, 24 μg/mL adenine, and 2 mM L-Glutamine. T75s were used and cells were split 1:3 upon reaching 90% confluency. All cultures were maintained in cell culture incubators at 37° C. and 5% CO2.
Ribonucleoproteins (RNP) are complexed by incubating 250 pmol of purified synthetic gRNA (Synthego Corporation, Redwood City, CA) with 50 pmol of purified spCas9 (Synthego Corporation, Redwood City, CA) at room temperature in nuclease-free 1× TE buffer for 15 minutes.
Transfections were carried out using the Lonza Nuclefector 4d. Cultures in t75s at 90% confluence were split 1:2 24 hours prior to transfection. RNPs were complexed at 250:50 pmol for 30 minutes prior to transfection, during which time cells were harvested and counted. All reactions were 100 μL and contained 1 e6 cells. Lonza SF solution and Nucleofector program CM-130 were used in all transfections of the H1703 cell line. Lonza SE solution and Nucleofector program CA-137 were used in all transfections of the PDMR. After transfection, 500 μL of media that had been equilibrated to cell culture CO2 and temperature conditions was added to each 100 μL cuvettes. Cuvettes were then placed in the incubator. After 20 minutes, the entire content of each cuvette was seeded into 3 mL of media in a 6 well plate. After 72 hours, samples were dissociated using 200 μL Trypsin 0.25% for 5 minutes. 800 μL culture media was used to quench and split into 1.5 mL tubes each containing 500 μL of the sample. Tubes were spun at 300×g for 5 minutes. One of the tubes was placed in the −20° C. freezer and the other was resuspended in 500 μL of Trizol for RNA extraction and cDNA synthesis.
All sequencing was performed on the Applied Biosystems SeqStudio. The BigDye Terminator v3.1 Cycle Sequencing Kit was used to prepare samples for sequencing. Resulting sequences were analyzed with DECODR to determine indel rates (Bloh et al., CRISPR J. 4:120-31 (2021)).
Human EGFR is a frequently mutated gene that is associated with cancers. One of the most common mutations is L858R which results in the creation of a novel PAM site, making it a targetable sequence by CRISPR. Like the R34G mutation, the CRISPR designed to target the L858R mutation is not highly efficient on its own. By combining the L858R-targeting CRISPR with another CRISPR of high efficiency in a downstream intronic region, exon skipping can be induced, resulting in a higher efficiency of functional knockout than the L858R targeting CRISPR alone. To find a suitable gRNA to pair with the L858R targeting CRISPR, we selected the intron between exons 21 and 22 (FIG. 6). A series of gRNAs were created in this region and screened for their ability to induce indels, a measure of their activity using DECODR (Bloh et al., CRISPR J. 4:120-31 (2021)) (Table 3).
In Table 3, all sequences are listed from 5′ to 3′. Indel percent, a measure of CRISPR activity, is based on transfections of individual guide RNAs. All guide RNAs, with the exception of L858R, were designed in the intron between exons 21 and 22.

In the case of “L858R gRNA: guide RNA TCAAGATCACAGATTTTGGG, SEQ ID NO:8, targets EGFR L858R mutation (listed as DNA, chemistry not given here)”, the indel % is reported as 73.2%.

From patent publication US12171813B2, “Methods of and compositions for reducing gene expression and/or activity” (Christiana Care Gene Editing Institute, Inc., priority 2021, dated 2024)
